Values of other authors, collected in patent US20220257611A1 (APTYS Pharmaceuticals SAS, priority 2019, published 2022).

Legend:
[1] = in vivo
[2] = in vivo; remark: listed apart in the source

elimination half-life [2] | SMILES | median effective analgesic dose (median value and 95% confidence interval) [1]
 | CC(=O)Nc1ccc(O)cc1 [acetaminophen, N-acetyl-p-amino-phenol] | 500 mg
four | CN1CCOC(c2ccccc2)c2ccccc2C1 (centres unmarked) [nefopam, 5-methyl-1-phenyl-1,3,4,6-tetrahydro-2,5-benzoxazocine] | 
